Read-outs that look alike come from different tables or passages of the source.
Columns and labels:
Type in all cases: binding
[1] = molecular target: T1, HeLa cell extract proteins (Homo sapiens, UniProt P13667)
T1 construct: endogenous in cells; host or cells: HeLa cell extract
T1 sequence (P13667 21-645): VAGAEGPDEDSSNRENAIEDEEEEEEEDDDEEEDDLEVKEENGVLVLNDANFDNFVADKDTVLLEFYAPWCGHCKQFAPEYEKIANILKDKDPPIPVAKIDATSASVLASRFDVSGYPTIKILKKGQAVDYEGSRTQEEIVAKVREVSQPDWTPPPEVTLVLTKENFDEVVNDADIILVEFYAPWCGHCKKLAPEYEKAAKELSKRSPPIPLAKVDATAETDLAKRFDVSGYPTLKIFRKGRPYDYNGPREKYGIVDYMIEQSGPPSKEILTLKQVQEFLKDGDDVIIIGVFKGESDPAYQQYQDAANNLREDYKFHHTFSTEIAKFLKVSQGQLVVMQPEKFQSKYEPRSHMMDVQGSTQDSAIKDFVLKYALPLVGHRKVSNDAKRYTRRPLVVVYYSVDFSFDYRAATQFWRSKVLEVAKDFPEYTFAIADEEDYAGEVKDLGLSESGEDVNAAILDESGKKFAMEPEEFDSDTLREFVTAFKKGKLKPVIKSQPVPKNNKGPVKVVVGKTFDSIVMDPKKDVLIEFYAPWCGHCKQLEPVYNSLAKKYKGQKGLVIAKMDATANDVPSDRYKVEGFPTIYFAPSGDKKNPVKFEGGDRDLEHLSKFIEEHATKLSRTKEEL

[2] = molecular target: T2, HeLa cell extract proteins (Homo sapiens, UniProt P27797)
T2 construct: endogenous in cells; host or cells: HeLa cell extract
T2 sequence (P27797 18-417): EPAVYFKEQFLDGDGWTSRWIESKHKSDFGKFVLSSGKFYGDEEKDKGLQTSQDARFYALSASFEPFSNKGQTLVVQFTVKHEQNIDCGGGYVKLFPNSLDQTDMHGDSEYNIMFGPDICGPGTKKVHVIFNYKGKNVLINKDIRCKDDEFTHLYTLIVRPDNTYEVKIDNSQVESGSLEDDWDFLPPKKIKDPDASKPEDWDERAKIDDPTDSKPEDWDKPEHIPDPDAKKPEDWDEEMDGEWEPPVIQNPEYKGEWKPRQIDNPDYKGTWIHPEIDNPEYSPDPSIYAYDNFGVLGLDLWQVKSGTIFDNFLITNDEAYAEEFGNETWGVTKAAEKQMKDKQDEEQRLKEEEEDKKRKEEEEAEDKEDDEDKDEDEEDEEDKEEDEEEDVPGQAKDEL

[3] = molecular target: T3, HeLa cell extract proteins (Homo sapiens, UniProt P53618)
T3 construct: endogenous in cells; host or cells: HeLa cell extract
T3 sequence (P53618 1-953): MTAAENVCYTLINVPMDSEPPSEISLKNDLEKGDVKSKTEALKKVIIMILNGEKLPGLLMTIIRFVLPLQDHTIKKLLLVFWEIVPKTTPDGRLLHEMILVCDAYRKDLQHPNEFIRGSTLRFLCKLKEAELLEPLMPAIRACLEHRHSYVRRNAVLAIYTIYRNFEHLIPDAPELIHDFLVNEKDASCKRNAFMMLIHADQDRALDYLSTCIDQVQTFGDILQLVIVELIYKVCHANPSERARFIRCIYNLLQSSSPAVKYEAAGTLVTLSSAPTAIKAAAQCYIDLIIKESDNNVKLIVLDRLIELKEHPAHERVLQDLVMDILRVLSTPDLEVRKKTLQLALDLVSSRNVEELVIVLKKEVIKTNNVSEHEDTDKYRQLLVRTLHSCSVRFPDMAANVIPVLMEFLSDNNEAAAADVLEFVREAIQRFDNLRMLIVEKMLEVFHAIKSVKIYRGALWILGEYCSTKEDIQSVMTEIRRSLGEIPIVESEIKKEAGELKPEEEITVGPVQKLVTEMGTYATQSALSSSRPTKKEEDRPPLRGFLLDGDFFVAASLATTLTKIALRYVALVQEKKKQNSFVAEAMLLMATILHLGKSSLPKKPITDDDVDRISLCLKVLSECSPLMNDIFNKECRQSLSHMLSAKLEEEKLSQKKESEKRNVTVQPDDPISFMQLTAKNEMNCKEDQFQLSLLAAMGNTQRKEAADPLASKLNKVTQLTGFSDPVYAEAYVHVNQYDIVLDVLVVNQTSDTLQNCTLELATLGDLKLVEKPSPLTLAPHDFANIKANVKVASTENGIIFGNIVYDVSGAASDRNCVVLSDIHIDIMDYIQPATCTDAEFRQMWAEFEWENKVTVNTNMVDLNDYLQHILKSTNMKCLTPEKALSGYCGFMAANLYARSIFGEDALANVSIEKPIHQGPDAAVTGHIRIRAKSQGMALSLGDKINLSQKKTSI

[4] = molecular target: T4, HeLa cell extract proteins (Homo sapiens, UniProt Q14247)
T4 construct: endogenous in cells; host or cells: HeLa cell extract
T4 sequence (Q14247 1-550): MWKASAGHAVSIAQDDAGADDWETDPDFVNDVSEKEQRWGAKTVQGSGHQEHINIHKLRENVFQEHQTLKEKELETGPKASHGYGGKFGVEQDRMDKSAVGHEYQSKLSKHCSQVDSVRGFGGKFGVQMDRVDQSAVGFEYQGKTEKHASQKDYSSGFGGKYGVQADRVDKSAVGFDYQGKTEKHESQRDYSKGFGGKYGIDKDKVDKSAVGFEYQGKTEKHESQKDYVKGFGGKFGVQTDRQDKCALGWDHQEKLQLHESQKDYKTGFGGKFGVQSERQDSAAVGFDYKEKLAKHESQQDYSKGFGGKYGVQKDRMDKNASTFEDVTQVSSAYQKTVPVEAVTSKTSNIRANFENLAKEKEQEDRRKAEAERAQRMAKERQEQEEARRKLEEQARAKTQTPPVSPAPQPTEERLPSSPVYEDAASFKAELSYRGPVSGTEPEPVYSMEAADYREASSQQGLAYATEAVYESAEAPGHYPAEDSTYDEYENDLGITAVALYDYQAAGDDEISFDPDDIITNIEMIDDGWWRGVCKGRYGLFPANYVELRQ

[5] = HeLa, protein PDIA4 (PROTEIN DISULFIDE-ISOMERASE A4 PRECURSOR.)

Structure (SMILES) | fold changes relative to vehicle control [1, 5] | fold changes relative to vehicle control ([3]; HeLa, protein COPB1) | fold changes relative to vehicle control ([4]; protein CTTN, HeLa) | fold changes relative to vehicle control ([1]; protein PDIA4, HeLa) | fold changes relative to vehicle control ([2]; HeLa, protein CALR) | fold changes relative to vehicle control ([4]; HeLa, captured protein CTTN) | further results
CCCCCCOc1cccc(Cc2cnc(N)nc2N)c1 [compound 2] | 2.84 fold | 1.07 | 1.18 |  |  |  | fold changes relative to vehicle control ([2]; HeLa, protein CALR (CALRETICULIN PRECURSOR.)): 3.14 fold
NCCOCCOCC(=O)Nc1nc2ncc(CNc3ccc(C(=O)NC(CCC(=O)O)C(=O)O)cc3)nc2c(=O)[nH]1 (stereo not shown) [compound 6] |  | 0.92 |  | 1.14 | 1.33 | 1.06 | 
CCCCCCOc1ccc(Cc2cnc(N)nc2N)cc1 [compound 1] | 1.76 fold | 0.97 | 1.04 |  |  |  | fold changes relative to vehicle control ([2]; HeLa, protein CALR (CA[…].)): 1.46 fold
Nc1nc2c(c(=O)[nH]1)N(C=O)C(CNc1ccc(C(=O)N[C@@H](CCC(=O)O)C(=O)O)cc1)CN2 (stereo partly shown) [LEU, leucovorin] |  | 0.87 |  | 0.93 | 1.15 | 0.99 | 
NCCCNc1ccc(C(=O)NC(CCC(=O)O)C(=O)O)cc1 (stereo not shown) [compound 7] |  | 0.97 |  | 0.87 | 0.93 | 0.96 | 
Nc1nc2[nH]cc(CCc3ccc(C(=O)N[C@@H](CCC(=O)O)C(=O)O)cc3)c2c(=O)[nH]1 [PTX, pemetrexed] |  |  |  |  |  |  | fold changes relative to vehicle control [1]: 1.04; fold changes relative to vehicle control [2]: 1.22; fold changes relative to vehicle control [3]: 0.84; fold changes relative to vehicle control [4]: 0.97
Nc1nc2cccc(-c3ccccc3)c2n1Cc1ccc(Cl)c(Cl)c1 [compound 3] | 0.75 fold | 1.17 | 0.94 |  |  |  | fold changes relative to vehicle control ([2]; HeLa, protein CALR (CA[…].)): 0.77 fold
